According to patent publication US9062078B2, “Substituted 7-azabicyles and their use as orexin receptor modulators” (priority 2013, dated 2015):
Where two headings read alike, the source gives them in different places.

Tests used:
rat orexin 1 receptor = rat orexin 1 receptor (Rattus norvegicus, UniProt P56718); experiment: Rat orexin 1 receptor radioligand binding (competitive, [3H]-SB674042, HEK293 cell preparations)
human orexin 2 receptor = human orexin 2 receptor (Homo sapiens (Human), UniProt O43614); experiment: Human orexin 2 receptor radioligand binding (competitive, [3H]-EMPA, HEK293 cell preparations)
Sequence of human orexin 2 receptor (O43614 whole entry): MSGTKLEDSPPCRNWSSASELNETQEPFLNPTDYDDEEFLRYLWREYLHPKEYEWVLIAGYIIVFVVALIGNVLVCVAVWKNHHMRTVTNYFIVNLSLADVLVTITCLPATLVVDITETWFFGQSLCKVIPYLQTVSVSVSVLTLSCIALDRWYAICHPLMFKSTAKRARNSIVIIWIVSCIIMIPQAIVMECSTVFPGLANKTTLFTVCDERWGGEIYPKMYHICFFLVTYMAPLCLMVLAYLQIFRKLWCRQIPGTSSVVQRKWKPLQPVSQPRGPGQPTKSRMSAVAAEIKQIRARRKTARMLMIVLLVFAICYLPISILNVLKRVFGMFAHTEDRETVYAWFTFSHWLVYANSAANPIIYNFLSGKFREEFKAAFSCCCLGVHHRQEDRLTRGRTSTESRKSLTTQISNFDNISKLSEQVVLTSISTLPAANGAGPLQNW

human orexin 1 receptor = human orexin 1 receptor (Homo sapiens (Human), UniProt O43613); experiment: Human orexin 1 receptor radioligand binding (competitive, [3H]-SB674042, CHO cell preparations)
Sequence of human orexin 1 receptor (O43613 whole entry): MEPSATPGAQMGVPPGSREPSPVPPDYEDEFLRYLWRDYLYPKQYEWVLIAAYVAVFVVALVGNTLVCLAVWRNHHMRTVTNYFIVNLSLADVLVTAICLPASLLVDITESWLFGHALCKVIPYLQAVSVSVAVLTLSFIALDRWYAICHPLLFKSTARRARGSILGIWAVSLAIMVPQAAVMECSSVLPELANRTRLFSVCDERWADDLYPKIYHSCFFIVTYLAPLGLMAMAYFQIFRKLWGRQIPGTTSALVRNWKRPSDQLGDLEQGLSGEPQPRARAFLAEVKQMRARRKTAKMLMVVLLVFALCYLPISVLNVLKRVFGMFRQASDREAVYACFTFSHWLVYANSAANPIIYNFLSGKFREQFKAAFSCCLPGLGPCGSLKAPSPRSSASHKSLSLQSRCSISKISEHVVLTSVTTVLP

[1] = rat orexin 1 receptor, [3H]-SB674042 competition binding, read-out: rOX1 Ki (nm)
[2] = human orexin 2 receptor, [3H]-EMPA competition binding, read-out: hOX2 Ki (nm)
[3] = human orexin 1 receptor, [3H]-SB674042 competition binding, read-out: hOX1 Ki (nm)

For `Cc1ccc(-c2ncccn2)c(C(=O)N2C3CCC2C(COc2ccccn2)C3)n1` (racemic) [Example 2, (±)-(6-methyl-3-(pyrimidin-2-yl)pyridin-2-yl)(2-((pyridin-2-yloxy)methyl)-7-azabicyclo[2.2.1]heptan-7-yl)methanone], the Ki (rat orexin 1 receptor; rOX1 Ki (nm)) was 0.031 µM, the Ki (human orexin 2 receptor; hOX2 Ki (nm)) was 0.5 µM and the Ki (human orexin 1 receptor; hOX1 Ki (nm)) was 0.023 µM.

Molecule `Cc1ccc(-c2ncccn2)c(C(=O)N2C3CCC2C(COc2ccc(F)cn2)C3)c1` (racemic) [Example 33, (±)-(2-(((5-fluoropyridin-2-yl)oxy)methyl)-7-azabicyclo[2.2.1]heptan-7-yl)(5-methyl-2-(pyrimidin-2-yl)phenyl)methanone] has a Ki (rat orexin 1 receptor; [1]) of 0.015 µM, a Ki (human orexin 2 receptor; [2]) of 0.039 µM and a Ki (human orexin 1 receptor; [3]) of 0.009 µM.

In the case of `O=C(c1c(F)cccc1-n1nccn1)N1C2CCC1C(COc1cnc3ccccc3n1)C2` (racemic) [Example 35, (±)-(2-fluoro-6-(2H-1,2,3-triazol-2-yl)phenyl)(2-((quinoxalin-2-yloxy)methyl)-7-azabicyclo[2.2.1]heptan-7-yl)methanone], the Ki (rat orexin 1 receptor; [1]) is reported as 0.069 µM, the Ki (human orexin 2 receptor; [2]) is reported as 0.693 µM and the Ki (human orexin 1 receptor; [3]) is reported as 0.058 µM.

`Cc1ccc(-n2nccn2)c(C(=O)N2C3CCC2C(COc2ccc(Br)cn2)C3)n1` (racemic) [Example 49, (±)-(2-(((5-bromopyridin-2-yl)oxy)methyl)-7-azabicyclo[2.2.1]heptan-7-yl)(6-methyl-3-(2H-1,2,3-triazol-2-yl)pyridin-2-yl)methanone] gave a Ki (rat orexin 1 receptor; rOX1 Ki (nm)) of 0.081 µM, a Ki (human orexin 2 receptor; [2]) of 0.192 µM and a Ki (human orexin 1 receptor; hOX1 Ki (nm)) of 0.069 µM.

For `Cc1ccc(-n2nccn2)c(C(=O)N2C3CCC2C(COc2ncccc2C)C3)n1` (racemic) [Example 55, (±)-(6-methyl-3-(2H-1,2,3-triazol-2-yl)pyridin-2-yl)(2-(((3-methylpyridin-2-yl)oxy)methyl)-7-azabicyclo[2.2.1]heptan-7-yl)methanone], the Ki (rat orexin 1 receptor; rOX1 Ki (nm)) was 0.119 µM, the Ki (human orexin 2 receptor; [2]) was 0.202 µM and the Ki (human orexin 1 receptor; hOX1 Ki (nm)) was 0.15 µM.

`Cc1ccc(-n2nccn2)c(C(=O)N2C3CCC2C(COc2cccnc2)C3)n1` (racemic) [Example 58, (±)-(6-methyl-3-(2H-1,2,3-triazol-2-yl)pyridin-2-yl)(2-((pyridin-3-yloxy)methyl)-7-azabicyclo[2.2.1]heptan-7-yl)methanone] gave a Ki (rat orexin 1 receptor; rOX1 Ki (nm)) of 0.088 µM, a Ki (human orexin 2 receptor; [2]) of 2.4 µM and a Ki (human orexin 1 receptor; hOX1 Ki (nm)) of 0.117 µM.

For `Cc1cccc(OCC2CC3CCC2N3C(=O)c2nc(C)ccc2-n2nccn2)n1` (racemic) [Example 62, (±)-(6-methyl-3-(2H-1,2,3-triazol-2-yl)pyridin-2-yl)(2-(((6-methylpyridin-2-yl)oxy)methyl)-7-azabicyclo[2.2.1]heptan-7-yl)methanone], the Ki (rat orexin 1 receptor; [1]) was 0.074 µM, the Ki (human orexin 2 receptor; hOX2 Ki (nm)) was 0.188 µM and the Ki (human orexin 1 receptor; [3]) was 0.046 µM.

With `Cc1ccc(-c2ncco2)c(C(=O)N2C3CCC2C(COc2ccc(F)cn2)C3)n1` (racemic) [Example 63, (±)-(2-(((5-fluoropyridin-2-yl)oxy)methyl)-7-azabicyclo[2.2.1]heptan-7-yl)(6-methyl-3-(oxazol-2-yl)pyridin-2-yl)methanone] the Ki (rat orexin 1 receptor; [1]) was 0.025 µM, the Ki (human orexin 2 receptor; [2]) was 0.339 µM and the Ki (human orexin 1 receptor; [3]) was 0.025 µM.

For `Cc1ccc(-c2ncccn2)c(C(=O)N2C3CCC2C(COc2ccc(F)cn2)C3)n1` (racemic) [Example 64, (±)-(2-(((5-fluoropyridin-2-yl)oxy)methyl)-7-azabicyclo[2.2.1]heptan-7-yl)(6-methyl-3-(pyrimidin-2-yl)pyridin-2-yl)methanone], the Ki (rat orexin 1 receptor; [1]) was 0.018 µM, the Ki (human orexin 2 receptor; [2]) was 0.081 µM and the Ki (human orexin 1 receptor; [3]) was 0.024 µM.

With `Cc1ccc(-c2nc(C)no2)c(C(=O)N2C3CCC2C(COc2ccc(F)cn2)C3)n1` (racemic) [Example 66, (±)-(2-(((5-fluoropyridin-2-yl)oxy)methyl)-7-azabicyclo[2.2.1]heptan-7-yl)(6-methyl-3-(3-methyl-1,2,4-oxadiazol-5-yl)pyridin-2-yl)methanone] the Ki (rat orexin 1 receptor; [1]) was 0.197 µM, the Ki (human orexin 2 receptor; [2]) was 0.62 µM and the Ki (human orexin 1 receptor; [3]) was 0.293 µM.

Work on `Cc1ccc(-n2ccc(C)n2)c(C(=O)N2C3CCC2C(COc2ccc(F)cn2)C3)n1` (racemic) [Example 67, (±)-(2-(((5-fluoropyridin-2-yl)oxy)methyl)-7-azabicyclo[2.2.1]heptan-7-yl)(6-methyl-3-(3-methyl-1H-pyrazol-1-yl)pyridin-2-yl)methanone] yielded a Ki (rat orexin 1 receptor; [1]) of 0.048 µM, a Ki (human orexin 2 receptor; [2]) of 0.258 µM and a Ki (human orexin 1 receptor; [3]) of 0.069 µM.

Work on `CCOc1ncc2ccccc2c1C(=O)N1C2CCC1C(COc1ccccn1)C2` (racemic) [Example 83, (±)-(3-ethoxyisoquinolin-4-yl)(2-((pyridin-2-yloxy)methyl)-7-azabicyclo[2.2.1]heptan-7-yl)methanone] yielded a Ki (rat orexin 1 receptor; rOX1 Ki (nm)) of 0.017 µM and a Ki (human orexin 1 receptor; hOX1 Ki (nm)) of 0.012 µM.

With `Cc1ccc(C(=O)N2C3CCC2C(COc2cnc4ccccc4n2)C3)c(-n2nccn2)n1` (racemic) [Example 168, (±)-(6-methyl-2-(2H-1,2,3-triazol-2-yl)pyridin-3-yl)(2-((quinoxalin-2-yloxy)methyl)-7-azabicyclo[2.2.1]heptan-7-yl)methanone] the Ki (human orexin 2 receptor; hOX2 Ki (nm)) was 7.3 µM and the Ki (human orexin 1 receptor; [3]) was 2.3 µM.

With `O=C(c1cc(F)ccc1-n1nccn1)N1C2CCC1C(CNc1ccccn1)C2` (racemic) [Example 169, (±)-(5-fluoro-2-(2H-1,2,3-triazol-2-yl)phenyl)(2-((pyridin-2-ylamino)methyl)-7-azabicyclo[2.2.1]heptan-7-yl)methanone] the Ki (human orexin 2 receptor; [2]) was 2.53 µM and the Ki (human orexin 1 receptor; [3]) was 9 µM.

For `Cc1cc(C)nc(NCC2CC3CCC2N3C(=O)c2cc(F)ccc2-n2nccn2)n1` (racemic) [Example 170, (±)-(2-(((4,6-dimethylpyrimidin-2-yl)amino)methyl)-7-azabicyclo[2.2.1]heptan-7-yl)(5-fluoro-2-(2H-1,2,3-triazol-2-yl)phenyl)methanone], the Ki (human orexin 2 receptor; hOX2 Ki (nm)) was 0.512 µM and the Ki (human orexin 1 receptor; [3]) was 1.96 µM.

Molecule `Cc1ccc(-n2nccn2)c(C(=O)N2C3CCC2C(COc2cc(C)nc(C(F)(F)F)n2)C3)c1` (racemic) [Example 180, (±)-(5-methyl-2-(2H-1,2,3-triazol-2-yl)phenyl)(2-(((6-methyl-2-(trifluoromethyl)pyrimidin-4-yl)oxy)methyl)-7-azabicyclo[2.2.1]heptan-7-yl)methanone] has a Ki (human orexin 2 receptor; [2]) of 0.032 µM and a Ki (human orexin 1 receptor; hOX1 Ki (nm)) of 0.033 µM.

Molecule `O=C(c1ccccc1-n1nccn1)N1C2CCC1C(Nc1cnc(C(F)(F)F)cn1)C2` (racemic) [Example 182, (±)-((2-(2H-1,2,3-triazol-2-yl)phenyl)(2-((5-(trifluoromethyl)pyrazin-2-yl)amino)-7-azabicyclo[2.2.1]heptan-7-yl)methanone] has a Ki (human orexin 2 receptor; hOX2 Ki (nm)) of 1.1 µM and a Ki (human orexin 1 receptor; hOX1 Ki (nm)) of 0.038 µM.

Molecule `Cc1cc(C)nc(NC2CC3CCC2N3C(=O)c2cc(F)ccc2-n2nccn2)n1` (racemic) [Example 197, (±)-(2-((4,6-dimethylpyrimidin-2-yl)amino)-7-azabicyclo[2.2.1]heptan-7-yl)(5-fluoro-2-(2H-1,2,3-triazol-2-yl)phenyl)methanone] has a Ki (human orexin 2 receptor; hOX2 Ki (nm)) of 0.862 µM and a Ki (human orexin 1 receptor; hOX1 Ki (nm)) of 9 µM.

With `Cc1cc(C)nc(NC2CC3CCC2N3C(=O)c2c(F)cccc2-n2nccn2)n1` (racemic) [Example 198, (±)-(2-((4,6-dimethylpyrimidin-2-yl)amino)-7-azabicyclo[2.2.1]heptan-7-yl)(2-fluoro-6-(2H-1,2,3-triazol-2-yl)phenyl)methanone] the Ki (human orexin 2 receptor; [2]) was 0.704 µM and the Ki (human orexin 1 receptor; hOX1 Ki (nm)) was 1.41 µM.

For `Cc1cc(C)nc(NC2CC3CCC2N3C(=O)c2ccc(F)cc2-n2nccn2)n1` (racemic) [Example 199, (±)-(2-((4,6-dimethylpyrimidin-2-yl)amino)-7-azabicyclo[2.2.1]heptan-7-yl)(4-fluoro-2-(2H-1,2,3-triazol-2-yl)phenyl)methanone], the Ki (human orexin 2 receptor; [2]) was 0.553 µM and the Ki (human orexin 1 receptor; [3]) was 1.63 µM.

For `O=C(c1ccccc1-c1cccs1)N1[C@@H]2CC[C@H]1[C@H](COc1ccc(F)cn1)C2` (single isomer, unassigned) [Example 12A, ((1S*,2R*,4R*)-2-(((5-fluoropyridin-2-yl)oxy)methyl)-7-azabicyclo[2.2.1]heptan-7-yl)(2-(thiophen-2-yl)phenyl)methanone], the Ki (human orexin 2 receptor; hOX2 Ki (nm)) was 0.339 µM and the Ki (human orexin 1 receptor; hOX1 Ki (nm)) was 0.177 µM.

Work on `O=C(c1ccccc1-c1cccs1)N1[C@H]2CC[C@@H]1[C@@H](COc1ccc(F)cn1)C2` (single isomer, unassigned) [Example 12B, ((1R*,2S*,4S*)-2-(((5-fluoropyridin-2-yl)oxy)methyl)-7-azabicyclo[2.2.1]heptan-7-yl)(2-(thiophen-2-yl)phenyl)methanone] yielded a Ki (human orexin 2 receptor; hOX2 Ki (nm)) of 0.005 µM and a Ki (human orexin 1 receptor; hOX1 Ki (nm)) of 0.003 µM.

In the case of `O=C(c1ccccc1-n1nccn1)N1C2CCC1C(Nc1cnc(C(F)(F)F)cn1)C2` (single isomer, unassigned) [Example 183b], the Ki (human orexin 2 receptor; hOX2 Ki (nm)) is reported as 0.7 µM and the Ki (human orexin 1 receptor; hOX1 Ki (nm)) is reported as 0.028 µM.

For `CCOc1ncc2ccccc2c1C(=O)N1[C@@H]2CC[C@H]1[C@H](COc1ccccn1)C2` [Example 164, (3-ethoxyisoquinolin-4-yl)((1S,2R,4R)-2-((pyridin-2-yloxy)methyl)-7-azabicyclo[2.2.1]heptan-7-yl)methanone], the Ki (rat orexin 1 receptor; read-out: rOX1 Ki (nm)) was 0.009 µM and the Ki (human orexin 1 receptor; read-out: hOX1 Ki (nm)) was 0.007 µM.

For `O=C(c1ccccc1-n1nccn1)N1[C@@H]2CC[C@H]1[C@H](Nc1cnc(C(F)(F)F)cn1)C2` [Example 181, (2-(2H-1,2,3-triazol-2-yl)phenyl)((1S,2R,4R)-2-((5-(trifluoromethyl)pyrazin-2-yl)amino)-7-azabicyclo[2.2.1]heptan-7-yl)methanone], the Ki (human orexin 2 receptor; hOX2 Ki (nm)) was 0.7 µM and the Ki (human orexin 1 receptor; hOX1 Ki (nm)) was 0.028 µM.

`Cc1noc(-c2c(F)cccc2C(=O)N2[C@@H]3CC[C@H]2[C@H](Nc2cnc(C(F)(F)F)cn2)C3)n1` [Example 254, (3-fluoro-2-(3-methyl-1,2,4-oxadiazol-5-yl)phenyl)((1S,2R,4R)-2-((5-(trifluoromethyl)pyrazin-2-yl)amino)-7-azabicyclo[2.2.1]heptan-7-yl)methanone] gave a Ki (human orexin 2 receptor; [2]) of 0.377 µM and a Ki (human orexin 1 receptor; read-out: hOX1 Ki (nm)) of 0.02 µM.

Molecule `O=C(c1ccc(F)cc1-n1nccn1)N1[C@@H]2CC[C@H]1[C@H](Nc1cnc(C(F)(F)F)cn1)C2` [Example 257, (4-fluoro-2-(2H-1,2,3-triazol-2-yl)phenyl)((1S,2R,4R)-2-((5-(trifluoromethyl)pyrazin-2-yl)amino)-7-azabicyclo[2.2.1]heptan-7-yl)methanone] has a Ki (human orexin 2 receptor; [2]) of 3.2 µM and a Ki (human orexin 1 receptor; [3]) of 0.102 µM.
